Data from US9308182B2 (TEVA PHARMACEUTICAL INDUSTRIES, LTD., priority 2012, dated 2016).
Read-outs that look alike come from different tables or passages of the source.

Biological target: MAO-A (Rattus norvegicus, UniProt P21396)
Test: in vivo
Settings: for MAO-A activity, brain / MAO-A activity, intestine / MAO-A activity, liver: two weeks; for MAO-A inhibition in the intestine: three lowest doses 0.02-0.1 mg/kg/day (salt); for inhibition at 0.02 mg/kg/day / inhibition at 0.05 mg/kg/day / inhibition at 0.1 mg/kg/day / inhibition at 0.2 mg/kg/day / inhibition at 0.4 mg/kg/day / inhibition at 0.8 mg/kg/day: rat
Text: ALZET® osmotic minipumps are described in Perkins L, Peer C, and Murphy-Hackley P. “Chapter 21: The use of mini-osmotic pumps in continuous infusion studies” in Handbook of Pre-Clinical Continuous Intravenous Infusion, (Smith & Healing, eds., Taylor and Francis, 2000), the contents of which are incorporated herein by reference.
The osmotic minipumps were inserted subcutaneously with a single surgical procedure: after clipping the fur from the dorsal area and cleaning the skin with antiseptic skin preparation, about 1 cm long incision was made on the dorsum of the animal, midway between both scappulae. The pump was placed along the axis of the body to one side of the backbone. The incision was positioned about 1-2 cm caudal to the estimated caudal end of the minipump when it is in place.
After two weeks of treatment the animals were sacrificed. From each rat, brain (half) and a part of liver were dissected and frozen. The intestine was excised about ½ cm below the stomach about 1-2 cm long, washed with sucrose 0.32 Molar and frozen at −70° C.
Tissue homogenates were pre incubated (37° C.) in the presence of clorgyline or deprenyl to inhibit the activity of MAO-A or MAO-B respectively. For MAO-B determination, samples were incubated for 20 minutes with C^14 PEA 10 μM and for MAO-A determination samples were incubated 30 minutes with C^14 −5HT 100 μM as substrate Termination of the reaction was done by acidification. The labeled metabolites were extracted into toluene:ethyl acetate, and counted in a β counter.

[1] = po, read-out: Percent of MAO-A inhibition, brain
[2] = po, read-out: Percent of MAO-A inhibition, intestine
[3] = po, read-out: Percent of MAO-A inhibition, liver
[4] = sc, read-out: Percent of MAO-A inhibition, brain
[5] = sc, read-out: Percent of MAO-A inhibition, intestine

Sequence of MAO-A (P21396 whole entry): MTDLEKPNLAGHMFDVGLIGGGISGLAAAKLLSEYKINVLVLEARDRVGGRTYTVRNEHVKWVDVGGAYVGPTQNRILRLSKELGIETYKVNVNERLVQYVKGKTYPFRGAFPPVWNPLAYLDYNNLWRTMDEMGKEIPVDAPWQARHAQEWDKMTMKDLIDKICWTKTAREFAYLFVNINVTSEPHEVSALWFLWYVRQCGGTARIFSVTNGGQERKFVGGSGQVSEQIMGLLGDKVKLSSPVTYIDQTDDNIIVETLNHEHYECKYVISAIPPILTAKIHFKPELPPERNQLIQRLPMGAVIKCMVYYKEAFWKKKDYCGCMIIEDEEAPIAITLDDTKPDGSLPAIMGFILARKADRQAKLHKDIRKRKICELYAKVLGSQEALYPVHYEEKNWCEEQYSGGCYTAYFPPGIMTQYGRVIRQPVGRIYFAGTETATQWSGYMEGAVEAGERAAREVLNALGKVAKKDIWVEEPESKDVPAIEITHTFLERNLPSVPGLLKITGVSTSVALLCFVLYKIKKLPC

C#CCN[C@@H]1CCc2ccccc21 [rasagiline, R(+)-N-propargyl-l-aminoindan]
dose dependence of MAO-A inhibition (all tissues (intestine, brain, liver)): Dose Dependent | MAO-A inhibition in the brain, ALZET pumps compared with oral administration (brain): higher | MAO-A activity, brain (brain, oral, 0.02 mg/kg/day (salt)): 3441 dpm | MAO-A activity, brain (brain, oral, 0.05 mg/kg/day (salt)): 3031 dpm | MAO-A activity, brain (brain, oral, 0.1 mg/kg/day (salt)): 2822 dpm | MAO-A activity, brain (brain, oral, 0.2 mg/kg/day (salt)): 2319 dpm | MAO-A activity, brain (brain, oral, 0.4 mg/kg/day (salt)): 1417 dpm | MAO-A activity, brain (brain, oral, 0.8 mg/kg/day (salt)): 803 dpm | MAO-A activity, brain (brain, sc ALZET pumps, 0.02 mg/kg/day (salt)): 3479 dpm | MAO-A activity, brain (brain, sc ALZET pumps, 0.05 mg/kg/day (salt)): 2974 dpm | MAO-A activity, brain (brain, sc ALZET pumps, 0.1 mg/kg/day (salt)): 2595 dpm | MAO-A activity, brain (brain, sc ALZET pumps, 0.2 mg/kg/day (salt)): 1613 dpm | MAO-A activity, brain (brain, sc ALZET pumps, 0.4 mg/kg/day (salt)): 917 dpm | MAO-A activity, brain (brain, sc ALZET pumps, 0.8 mg/kg/day (salt)): 466 dpm | MAO-A inhibition in the intestine, subcutaneous pumps compared with oral administration (intestine, 14 days, differences statistically significant): lower | MAO-A activity, intestine (intestine, oral, 0.02 mg/kg/day (salt)): 2712 dpm | MAO-A activity, intestine (intestine, oral, 0.05 mg/kg/day (salt)): 2607 dpm | MAO-A activity, intestine (intestine, oral, 0.1 mg/kg/day (salt)): 2308 dpm | MAO-A activity, intestine (intestine, oral, 0.2 mg/kg/day (salt)): 1891 dpm | MAO-A activity, intestine (intestine, oral, 0.4 mg/kg/day (salt)): 1194 dpm | MAO-A activity, intestine (intestine, oral, 0.8 mg/kg/day (salt)): 785 dpm | MAO-A activity, intestine (intestine, sc ALZET pumps, 0.02 mg/kg/day (salt)): 3199 dpm | MAO-A activity, intestine (intestine, sc ALZET pumps, 0.05 mg/kg/day (salt)): 2831 dpm | MAO-A activity, intestine (intestine, sc ALZET pumps, 0.1 mg/kg/day (salt)): 3029 dpm | MAO-A activity, intestine (intestine, sc ALZET pumps, 0.2 mg/kg/day (salt)): 2604 dpm | MAO-A activity, intestine (intestine, sc ALZET pumps, 0.4 mg/kg/day (salt)): 1937 dpm | MAO-A activity, intestine (intestine, sc ALZET pumps, 0.8 mg/kg/day (salt)): 1708 dpm | MAOA inhibitory values in the intestine (intestine, sc ALZET pumps, dose from 0.2 to 0.8 mg/kg): < 50% | MAO-A inhibition in the intestine (intestine, given by pumps): did not inhibit | MAO-A inhibition in the intestine (intestine, given orally): 26-37% | hepatic MAO-A inhibition, subcutaneous ALZET pumps compared with oral (liver): higher | MAO-A activity, liver (liver, oral, 0.02 mg/kg/day (salt)): 2127 dpm | MAO-A activity, liver (liver, oral, 0.05 mg/kg/day (salt)): 2199 dpm | MAO-A activity, liver (liver, oral, 0.1 mg/kg/day (salt)): 1963 dpm | MAO-A activity, liver (liver, oral, 0.2 mg/kg/day (salt)): 1582 dpm | MAO-A activity, liver (liver, oral, 0.4 mg/kg/day (salt)): 1058 dpm | MAO-A activity, liver (liver, oral, 0.8 mg/kg/day (salt)): 681 dpm | MAO-A activity, liver (liver, sc ALZET pumps, 0.02 mg/kg/day (salt)): 2192 dpm | MAO-A activity, liver (liver, sc ALZET pumps, 0.05 mg/kg/day (salt)): 2185 dpm | MAO-A activity, liver (liver, sc ALZET pumps, 0.1 mg/kg/day (salt)): 1930 dpm | MAO-A activity, liver (liver, sc ALZET pumps, 0.2 mg/kg/day (salt)): 646 dpm | MAO-A activity, liver (liver, sc ALZET pumps, 0.4 mg/kg/day (salt)): 27 + dpm | MAO-A activity, liver (liver, sc ALZET pumps, 0.8 mg/kg/day (salt)): 4 dpm | inhibition at 0.02 mg/kg/day [1]: 6% | inhibition at 0.05 mg/kg/day [1]: 15% | inhibition at 0.1 mg/kg/day [1]: 23% | inhibition at 0.2 mg/kg/day [1]: 37% | inhibition at 0.4 mg/kg/day [1]: 61% | inhibition at 0.8 mg/kg/day [1]: 78% | inhibition at 0.02 mg/kg/day [2]: 26% | inhibition at 0.1 mg/kg/day [2]: 37% | inhibition at 0.2 mg/kg/day [2]: 48% | inhibition at 0.8 mg/kg/day [2]: 79% | inhibition at 0.02 mg/kg/day [3]: 8% | inhibition at 0.05 mg/kg/day [3]: 5% | inhibition at 0.1 mg/kg/day [3]: 18% | inhibition at 0.2 mg/kg/day [3]: 31% | inhibition at 0.8 mg/kg/day [3]: 70% | inhibition at 0.02 mg/kg/day [4]: 8% | inhibition at 0.05 mg/kg/day [4]: 21% | inhibition at 0.1 mg/kg/day [4]: 31% | inhibition at 0.2 mg/kg/day [4]: 57% | inhibition at 0.4 mg/kg/day [4]: 76% | inhibition at 0.8 mg/kg/day [4]: 88% | inhibition at 0.02 mg/kg/day [5]: -8% | inhibition at 0.05 mg/kg/day [5]: 1% | inhibition at 0.1 mg/kg/day [5]: -3% | inhibition at 0.2 mg/kg/day [5]: 12% | inhibition at 0.4 mg/kg/day [5]: 34%
